Measured values reported in patent US9694019B2, “Compositions and methods for treating bone diseases and broken bones” (BRIGHAM YOUNG UNIVERSITY, priority 2011, dated 2017).
Residues, ends and D or L forms follow the SMILES beside them. *: point of attachment. Cbz = O=C(OCc1ccccc1)*; OtBu = CC(C)(C)O*

Test system: primary human MSC cells
Test: BMP regulation: gene expression array (SABiosciences PAHS-026) in primary human MSC cells
Type: cell-based
Details: hMSC, 8 hours
Experimental: SABisosciences custom array plates (Cat#PAHS-026) were used to measure BMP expression. These array plates are validated for efficiency when used at recommended conditions and reagents. On day 1, primary human MSC cells were plated at 200,000 cell/well using 6-well plates with 10% FBS, Penicillin and Streptomycin 10 mL per Liter, in recommended media. Only early passages of cells were used.
On day 2, cells were treated with compounds dissolved in DMSO diluted 1:1000 or more to avoid solvent effects. A non-treated negative control group was evaluated (FIG. 1, “Control Group”) along with a positive control group containing PS1 at 0.1 μM (FIG. 1, “Group 1”). Final testing concentration for CSA-90 was 5.0 μM (FIG. 1, “Group 2”), 2.5 μM (FIG. 1, “Group 3”), and 1.2 μM (FIG. 1, “Group 4”). Treatment lasted 8 hours, followed by RNA isolation using a QIAGEN Miniprep Kit. RNA was measured at 260/280 nm using NanoDrop2000 and normalized to 250 ng. cDNA preparation was done using QIAGEN First Strand kit.

[1] = PS1 0.1 μM, v. untreated control

**Q.** `CC[C@H](C)[C@H](NC(=O)OCc1ccccc1)C(=O)N[C@@H](CCC(=O)OC(C)(C)C)C(=O)N[C@@H](C)C(=O)N[C@H](C=O)CC(C)C` [PS1, reference compound] (Cbz-IE(OtBu)AL-aldehyde) was tested. Which “up-regulation of BMP-2 mRNA compared to the control” value (0.1 μM) did it give?
**A.** 3 fold

**Q.** And the “Fold Up-Regulation ACTB (Actin, beta)” value [1]?
**A.** −1.4183 fold

**Q.** And the “Fold Up-Regulation AHSG (Alpha-2-HS-glycoprotein)” value [1]?
**A.** −1.3295 fold

**Q.** What about the “Fold Up-Regulation ALPL (Alkaline phosphatase, liver/bone/kidney)” value [1] of the same compound?
**A.** −1.4723 fold

**Q.** And the “Fold Up-Regulation AMBN (Ameloblastin)” value [1]?
**A.** −1.9272 fold

**Q.** What about the “Fold Up-Regulation AMELY (Amelogenin, Y-linked)” value [1] of the same compound?
**A.** −1.8864 fold

**Q.** And the “Fold Up-Regulation ANXA5 (Annexin A5)” value [1]?
**A.** 1.1236 fold

**Q.** And the “Fold Up-Regulation BGLAP (Bone gamma-carboxyglutamate (gla) protein)” value [1]?
**A.** −1.3879 fold

**Q.** And the “Fold Up-Regulation BGN (Biglycan)” value [1]?
**A.** −1.1323 fold

**Q.** What about the “Fold Up-Regulation BMP-1 (Bone morphogenetic protein 1)” value [1] of the same compound?
**A.** −1.1214 fold

**Q.** And the “Fold Up-Regulation BMP-2 (Bone morphogenetic protein 2)” value [1]?
**A.** 3.0816 fold

**Q.** What about the “Fold Up-Regulation BMP-3 (Bone morphogenetic protein 3)” value [1] of the same compound?
**A.** −1.1038 fold

**Q.** What about the “Fold Up-Regulation BMP-4 (Bone morphogenetic protein 4)” value [1] of the same compound?
**A.** −2.2148 fold

**Q.** And the “Fold Up-Regulation BMP-5 (Bone morphogenetic protein 5)” value [1]?
**A.** 1.124 fold

**Q.** What about the “Fold Up-Regulation BMP-6 (Bone morphogenetic protein 6)” value [1] of the same compound?
**A.** 2.642 fold

**Q.** And the “Fold Up-Regulation CALCR (CALCITONIN RECEPTOR)” value [1]?
**A.** 1.124 fold

**Q.** What about the “Fold Up-Regulation CD36 (CD36 molecule, thrombospondin receptor)” value [1] of the same compound?
**A.** −1.0202 fold

**Q.** What about the “Fold Up-Regulation CDH11 (Cadherin 11, type 2, OB-cadherin)” value [1] of the same compound?
**A.** −2.2309 fold

**Q.** What about the “Fold Up-Regulation COL1A1 (Collagen, type I, alpha 1)” value [1] of the same compound?
**A.** −1.1935 fold

**Q.** And the “Fold Up-Regulation COL1A2 (Collagen, type I, alpha 2)” value [1]?
**A.** −1.0689 fold

**Q.** What about the “Fold Up-Regulation COL2A1 (Collagen, type II, alpha 1)” value [1] of the same compound?
**A.** −1.4242 fold

**Q.** What about the “Fold Up-Regulation COL3A1 (Collagen, type III, alpha 1)” value [1] of the same compound?
**A.** −1.0806 fold

**Q.** And the “Fold Up-Regulation COL4A3 (Collagen, type IV, alpha 3)” value [1]?
**A.** −1.0619 fold

**Q.** What about the “Fold Up-Regulation COL5A1 (Collagen, type V, alpha 1)” value [1] of the same compound?
**A.** 1.0927 fold

**Q.** And the “Fold Up-Regulation COL10A1 (Collagen, type X, alpha 1)” value [1]?
**A.** 1.5421 fold

**Q.** What about the “Fold Up-Regulation COL11A1 (Collagen, type XI, alpha 1)” value [1] of the same compound?
**A.** −1.4875 fold

**Q.** And the “Fold Up-Regulation COL12A1 (Collagen, type XII, alpha 1)” value [1]?
**A.** 1.0767 fold

**Q.** What about the “Fold Up-Regulation COL14A1 (Collagen, type XIV, alpha 1)” value [1] of the same compound?
**A.** −1.5279 fold

**Q.** And the “Fold Up-Regulation COL15A1 (Collagen, type XV, alpha 1)” value [1]?
**A.** 1.2144 fold

**Q.** And the “Fold Up-Regulation COMP (Cartilage oligomeric matrix protein)” value [1]?
**A.** 1.2648 fold

**Q.** And the “Fold Up-Regulation CSF2 (Colony stimulating factor 2)” value [1]?
**A.** 6.205 fold

**Q.** And the “Fold Up-Regulation CSF3 (Colony stimulating factor 3)” value [1]?
**A.** −2.4364 fold

**Q.** What about the “Fold Up-Regulation CTSK (Cathepsin K)” value [1] of the same compound?
**A.** −1.2679 fold

**Q.** And the “Fold Up-Regulation DMP1 (Dentin matrix acidic phosphoprotein 1)” value [1]?
**A.** 1.124 fold

**Q.** And the “Fold Up-Regulation DSPP (Dentin sialophosphoprotein)” value [1]?
**A.** 1.124 fold

**Q.** And the “Fold Up-Regulation EGF (Epidermal growth factor)” value [1]?
**A.** −1.2529 fold

**Q.** What about the “Fold Up-Regulation EGFR (Epidermal growth factor receptor)” value [1] of the same compound?
**A.** −1.8532 fold

**Q.** What about the “Fold Up-Regulation ENAM (Enamelin)” value [1] of the same compound?
**A.** 1.124 fold

**Q.** What about the “Fold Up-Regulation FGF1 (Fibroblast growth factor 1)” value [1] of the same compound?
**A.** −1.4948 fold

**Q.** What about the “Fold Up-Regulation FGF2 (Fibroblast growth factor 2)” value [1] of the same compound?
**A.** 1.3957 fold

**Q.** What about the “Fold Up-Regulation FGF3 (Fibroblast growth factor 3)” value [1] of the same compound?
**A.** −1.3257 fold

**Q.** What about the “Fold Up-Regulation FGFR1 (Fibroblast growth factor receptor 1)” value [1] of the same compound?
**A.** −1.0999 fold

**Q.** And the “Fold Up-Regulation FGFR2 (Fibroblast growth factor receptor 2)” value [1]?
**A.** −1.2644 fold

**Q.** And the “Fold Up-Regulation FLT1 (Fms-related tyrosine kinase 1)” value [1]?
**A.** −2.7821 fold

**Q.** And the “Fold Up-Regulation FN1 (Fibronectin 1)” value [1]?
**A.** 1.099 fold

**Q.** And the “Fold Up-Regulation GAPDH (Glyceraldehyde-3-phosphate dehydrogenase)” value [1]?
**A.** 1.161 fold

**Q.** What about the “Fold Up-Regulation GDF10 (Growth differentiation factor 10)” value [1] of the same compound?
**A.** 1.124 fold

**Q.** What about the “Fold Up-Regulation ICAM1 (Intercellular adhesion molecule 1)” value [1] of the same compound?
**A.** 1.5053 fold

**Q.** And the “Fold Up-Regulation IGF1 (Insulin-like growth factor 1)” value [1]?
**A.** 1.5067 fold

**Q.** And the “Fold Up-Regulation IGF1R (Insulin-like growth factor 1 receptor)” value [1]?
**A.** −1.0699 fold

**Q.** What about the “Fold Up-Regulation IGF2 (Insulin-like growth factor 2)” value [1] of the same compound?
**A.** −1.2388 fold

**Q.** What about the “Fold Up-Regulation ITGA1 (Integrin, alpha 1)” value [1] of the same compound?
**A.** 1.325 fold

**Q.** What about the “Fold Up-Regulation ITGA2 (Integrin, alpha 2)” value [1] of the same compound?
**A.** −1.0945 fold

**Q.** And the “Fold Up-Regulation ITGA3 (Integrin, alpha 3)” value [1]?
**A.** −1.8917 fold

**Q.** And the “Fold Up-Regulation ITGAM (Integrin, alpha M)” value [1]?
**A.** 1.3319 fold

**Q.** What about the “Fold Up-Regulation ITGB1 (Integrin, beta 1)” value [1] of the same compound?
**A.** 1.1614 fold

**Q.** And the “Fold Up-Regulation MMP2 (Matrix metallopeptidase 2)” value [1]?
**A.** −1.1194 fold

**Q.** And the “Fold Up-Regulation MMP8 (Matrix metallopeptidase 8)” value [1]?
**A.** 3.7453 fold

**Q.** What about the “Fold Up-Regulation MMP9 (Matrix metallopeptidase 9)” value [1] of the same compound?
**A.** −1.2449 fold

**Q.** What about the “Fold Up-Regulation MMP10 (Matrix metallopeptidase 10)” value [1] of the same compound?
**A.** 1.3516 fold

**Q.** What about the “Fold Up-Regulation MSX1 (Msh homeobox 1)” value [1] of the same compound?
**A.** 6.2916 fold

**Q.** What about the “Fold Up-Regulation NFKB1 (Nuclear factor of kappa light polypeptide gene enhancer in B-cells 1)” value [1] of the same compound?
**A.** −1.1038 fold

**Q.** And the “Fold Up-Regulation PDGFA (Platelet-derived growth factor alpha polypeptide)” value [1]?
**A.** 1.0421 fold

**Q.** What about the “Fold Up-Regulation PHEX (Phosphate regulating endopeptidase homolog, Xlinked)” value [1] of the same compound?
**A.** 1.9871 fold

**Q.** And the “Fold Up-Regulation RUNX2 (Runt-related transcription factor 2)” value [1]?
**A.** −3.542 fold

**Q.** What about the “Fold Up-Regulation SCARB1 (Scavenger receptor class B, member 1)” value [1] of the same compound?
**A.** 1.1791 fold

**Q.** What about the “Fold Up-Regulation SERPIN H1 (Serpin peptidase inhibitor, clade H, member 1)” value [1] of the same compound?
**A.** 1.4764 fold

**Q.** And the “Fold Up-Regulation SMAD1 (SMAD family member 1)” value [1]?
**A.** −1.2813 fold

**Q.** And the “Fold Up-Regulation SMAD2 (SMAD family member 2)” value [1]?
**A.** 1.0462 fold

**Q.** And the “Fold Up-Regulation SMAD3 (SMAD family member 3)” value [1]?
**A.** −2.771 fold

**Q.** And the “Fold Up-Regulation SMAD4 (SMAD family member 4)” value [1]?
**A.** 1.3022 fold

**Q.** And the “Fold Up-Regulation STATH (Statherin)” value [1]?
**A.** −2.2674 fold

**Q.** And the “Fold Up-Regulation TFIP11 (Tuftelin interacting protein 11)” value [1]?
**A.** 1.1041 fold

**Q.** What about the “Fold Up-Regulation TGFB1 (Transforming growth factor, beta 1)” value [1] of the same compound?
**A.** −1.2644 fold

**Q.** What about the “Fold Up-Regulation TGFB2 (Transforming growth factor, beta 2)” value [1] of the same compound?
**A.** 1.0081 fold

**Q.** And the “Fold Up-Regulation TGFB3 (Transforming growth factor, beta 3)” value [1]?
**A.** 2.2234 fold

**Q.** And the “Fold Up-Regulation TGFBR1 (Transforming growth factor, beta receptor 1)” value [1]?
**A.** 2.0059 fold

**Q.** And the “Fold Up-Regulation TGFBR2 (Transforming growth factor, beta receptor II)” value [1]?
**A.** −2.3752 fold

**Q.** And the “Fold Up-Regulation TNF (Tumor necrosis factor)” value [1]?
**A.** 1.8055 fold

**Q.** And the “Fold Up-Regulation TUFT1 (Tuftelin 1)” value [1]?
**A.** 1.4326 fold

**Q.** And the “Fold Up-Regulation TWIST1 (Twist homolog 1)” value [1]?
**A.** −2.197 fold

**Q.** What about the “Fold Up-Regulation VCAM1 (Vascular cell adhesion molecule 1)” value [1] of the same compound?
**A.** −2.406 fold

**Q.** And the “Fold Up-Regulation VDR (Vitamin D (1,25-dihydroxyvitamin D3) receptor)” value [1]?
**A.** −1.5248 fold

**Q.** What about the “Fold Up-Regulation VEGFA (Vascular endothelial growth factor A)” value [1] of the same compound?
**A.** −1.0162 fold

**Q.** What about the “Fold Up-Regulation VEGFB (Vascular endothelial growth factor B)” value [1] of the same compound?
**A.** −1.1191 fold
